Data reported in the supplement of paper PMC10949913.

Experiments:
Settings in all cases: 48 h
[1] = tested on: CU-ACC1; assay: AC50 viability; higher = less potent
In short: (§1)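 Three adrenocortical carcinoma cell lines were seeded at 500–1,000 cells/well in 5 µL medium in 1,536-well plates. 23 nL of each MIPE 5.0 library compound was added at 11 concentrations. After 48 h (per the protocol name), CellTiter-Glo was added for 15 minutes at room temperature and luminescence was read. Signals were normalised per plate to vehicle and empty-well controls. AC50 and area under the curve came from fitted concentration-response curves, keeping only inhibitory or non-responding curve classes.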

[2] = tested on: NCI-H295R; assay: AC50 viability; higher = less potent
In short: as §1

[3] = tested on: CU-ACC1; assay: area under concentration-response curve (viability) (AUC (a.u.)); higher = less active
In short: as §1

[4] = tested on: NCI-H295R; assay: as above
In short: as §1

[5] = tested on: CU-ACC2; assay: as above
In short: as §1

Structure (SMILES)	AC50 viability [1] [µM]	AC50 viability [2] [µM]	area under concentration-response curve [3]	area under concentration-response curve [4]	area under concentration-response curve [5]
CCC(CC)C(c1ccc(Nc2nc3ccccc3s2)cc1)n1cncn1 (stereo not given)	29.5	20.9	451	474	
O=[N+]([O-])c1ccc(O)c2ncccc12	11.8	11.8	482	483	
CC(C)Oc1ccc(C(=O)N[C@H](CNC(=O)CN(C)C)Cc2ccc(-c3cn4cccc([C@H](C)O)c4n3)cc2)cc1Cl	16.6	13.2	424	427	
Cc1c(-c2ccc(O)cc2)n(Cc2ccc(OCCN3CCCCCC3)cc2)c2ccc(O)cc12	29.5	23.5	496	508	
CCC(=O)O[C@@]1([C@@H](C)C[C@H]2[C@@H]3CCC/4=C/C(=O)/C=C\[C@]4(C)[C@@]3(F)[C@@H](O)C[C@]12C)C(=O)CCl	20.9	20.9	475	503	
O=C(NCCCNc1nc(Nc2ccc(N3CCOCC3)cc2)ncc1C1CC1)C1CCC1	2.63	14.8	379	460	
CCN1CCN(Cc2ccc(NC(=O)c3ccc(C)c(/C=C/c4cnc5[nH]ccc5c4OC)c3)cc2C(F)(F)F)CC1	9.34	7.42	461	471	
CN1CCN(CCCN2c3ccccc3Sc3ccc(C(F)(F)F)cc32)CC1	29.5	18.6	441	480	
Clc1ccc(C(c2ccccc2Cl)C(Cl)Cl)cc1 (stereo not given)	18.6	20.9	426	432	
CC[C@H](C)[N]1C=C(C)C2=C1C=C(C=C2C(=O)NC\C3=C(C)\C=C(\C)NC3=O)C4=CC=C(N=C4)N5CCNCC5	18.6	23.5	449	493	
CC(=O)C\1=C(/C)C2=CN=C(NC3=CC=C(C=N3)N4CCNCC4)N=C2N(C5CCCC5)C1=O	16.6	26.3	461	487	
COC1=CC2=C(C=C1OC)[C@H]3[C@@H](CO2)OC4=C(C=CC5=C4\C=C/C(C)(C)O5)C3=O	0.372	16.6	342	510	
C/C(=C\C(=O)Nc1ccccc1C(=O)O)c1ccc2ccccc2c1	7.42	18.6	451	449	
COCc1c(-c2ccc(NC(=O)Nc3cc(C(F)(F)F)ccc3F)c(F)c2)c2c(N)ncnn2c1CN1CCOCC1	8.33	6.61	342	363	
FC(F)(F)C1=CC=C2C(SCCCCCO\C3=C\O\C(CN4CCOCC4)=C/C3=O)=CC=NC2=C1	8.33	18.6	295	324	
O=C(C(c1ccccc1)c1ccccc1)N1CCN(CC(O)COc2cccc3ncccc23)CC1 (stereo not given)	23.5	16.6	467	524	
CCCC\1=C(/CNC(=O)C2=CC(=CC3=C2C=N[N]3C(C)C)C4=CC(=NC=C4)N5CCN(C)CC5)C(=O)NC(=C1)\C	18.6	18.6	478	501	
CN(C)CCCNC(=O)c1ccc(-c2cc(O)c3ncccc3c2)cc1	16.6	0.332	376	360	
Cc1c(C(=O)NN2CCCCC2)nn(-c2ccc(Cl)cc2Cl)c1-c1ccc(Cl)cc1	20.9	18.6	396	433	
NCC1CCN(c2nccc(-c3ccc4ccccc4c3)n2)CC1	23.5	16.6	477	492	
O=C1Nc2ccc(Cl)cc2[C@@](C#CC2CC2)(C(F)(F)F)O1	29.5	20.9	471	504	
NC(=O)c1ccc2nc(-c3ccc(C4(N)CCC4)cc3)c(-c3ccccc3)n2n1	18.6	16.6	483	465	

Structure (SMILES)	AC50 viability [1] [µM]	AC50 viability [2] [µM]	area under concentration-response curve [3]	area under concentration-response curve [4]	area under concentration-response curve [5]
O=C(Nc1cccnn1)N1CCC(=Cc2cccc(Oc3ccc(C(F)(F)F)cn3)c2)CC1	20.9	20.9	361	445	
Nc1ccc(F)cc1NC(=O)c1ccc(CNC(=O)/C=C/c2cccnc2)cc1	9.34	8.33	341	433	
COC1=CC=C2[N](CCCN(C)C)C=C(C2=C1)C/3=C(/C(=O)NC3=O)C4=C[NH]C5=C4C=CC=C5	26.3	26.3	514	547	
[2H]C([2H])(Nc1nc(-c2ccccc2C([2H])(C([2H])([2H])[2H])C([2H])([2H])[2H])ncc1C)c1ccc(-n2ccnn2)cc1	16.6	9.34	469	531	
CC1=C(C)C\2=C(S1)[N]3C(=NN=C3C(CC(=O)NC4=CC=C(O)C=C4)\N=C2C5=CC=C(Cl)C=C5)C (stereo not given)	2.63		458	527	549
O=C(NC[C@H](O)CO)c1ccncc1Nc1ccc(I)cc1F	11.8		397	537	506
Cc1c(CN2CCN(C(=O)[C@H](C)O)CC2)sc2c(N3CCOCC3)nc(-c3cnc(N)nc3)nc12	0.0295	2.09	215	210	
C[C@@H]1CC[C@@]2(CC[C@]3(C)\C(=C/C[C@@H]4[C@@]5(C)CC[C@H](O)C(C)(C)[C@@H]5CC[C@@]34C)[C@@H]2[C@H]1C)C(O)=O	9.34		402	419	441
Nc1nccc(-c2c(-c3ccc(F)cc3)ncn2C2CCCCC2)n1	14.8		480	556	621
Cl.Cl.Cl.O[C@@H](COc1cccc2ncccc12)CN1CCN([C@@H]2c3ccccc3[C@@H]3[C@H](c4ccccc42)C3(F)F)CC1	23.5	16.6	515	490	
NC(=O)c1cccc(-c2cc(Nc3ccc(OC(F)(F)F)cc3)ncn2)c1	16.6	20.9	488	538	
Cc1ccc(F)c(NC(=O)Nc2ccc(-c3cccc4[nH]nc(N)c34)cc2)c1	18.6	26.3	497	506	
CN(C)CCOc1cc(-c2cn[nH]c2)ccc1NC(=O)C1COc2ccccc2O1 (stereo not given)	20.9		390	452	426
CCCn1c(=O)c2[nH]c(C34CC5CC3C[C@@H](C5)C4)nc2n(CCC)c1=O	26.3		435	489	524
C[S+](=O)([O-])c1ccc([C@@H](CC2CCCC2)C(=O)Nc2nccs2)cc1	18.6	16.6	379	393	
Cc1c(C(=O)N2CCOc3ccc(-c4ccc(N)nc4)cc3C2)ccc([S+](C)(=O)[O-])c1F	8.33		428	473	516
COC1CCN(CC1)C(=O)C2=CC(=CC=C2F)CC/3=N/NC(=O)C4=CC=CC=C34	0.209		441	423	457
CNC(=O)c1c(F)cccc1Nc1nc(Nc2cc3c(cc2OC)CCN3C(=O)CN(C)C)nc2[nH]ccc12	20.9		524	458	526
COCCOC1=CN=C2\C=C/N([C@H](C)C3=NN=C4[N]3C=C(C=C4F)C5=C[N](C)N=C5)C(=O)C2=C1	0.0118		394	322	338
CCNC(=O)c1noc(-c2cc(C(C)C)c(O)cc2O)c1-c1ccc(CN2CCOCC2)cc1	0.0118		226	198	114
CNC(=O)c1cc(Oc2ccc3nc(N[C@@H]4CCCC[C@H]4O)sc3c2)ccn1	20.9		481	548	583
Fc1ccc(CNc2ncnc3ccc(F)cc23)cc1	2.35		415	509	577

Structure (SMILES)	AC50 viability [1] [µM]	AC50 viability [2] [µM]	area under concentration-response curve [3]	area under concentration-response curve [4]	area under concentration-response curve [5]
CC#C[C@@H](CC(=O)O)c1ccc(OCc2cccc(-c3ccc(C(F)(F)F)cc3)c2)cc1	1.48		406	411	506
CCOCOC[C@H](C[C@H](C)C(=O)NO)NC(=O)c1ccc(Oc2ccccc2)cc1	23.5		512	595	636
CCN(CC)CCCC[C@H](NC(=O)[C@H](CC(C)C)NC(=O)[C@H](C)NC(=O)[C@H](Cc1ccccc1)NC(=O)c1ccc(C(C)(C)C)cc1)C(=O)N[C@@H](CO)C(=O)OC	0.0132		446	421	424
CC[C@H](C)C(=O)O[C@H]1CC\C=C2\C=C/[C@H](C)[C@H](CC[C@@H]3C[C@@H](O)CC(=O)O3)[C@@H]12	14.8		426	484	415
Cc1cc(-c2ncc(CC(=O)Nc3ccc(-c4cnccn4)cn3)cc2C)ccn1	7.42		429	500	597
COc1ccc([S+](=O)([O-])Nc2cccnc2Nc2ccc(O)cc2)cc1	4.68		479	498	569
OC[C@H](Cc1ccccc1)Nc1nc(Oc2ccc3c(c2)CCC3)nc2c1ncn2Cc1ccc(-c2ccccc2)cc1	14.8		430	477	524
Cc1c[nH]c(/C=C2\C(=O)Nc3ccccc32)c1CCC(=O)O	0.0105		428	381	353
CN(NC(=O)CC(=O)NN(C)C(=S)c1ccccc1)C(=S)c1ccccc1	3.72		402	521	567
COc1ccc(Cn2ccc3ccc(C(=O)NO)cc32)cc1	23.5		524	582	625
[O-]C(=O)C1=C(C(=C(Cl)C(=C1Cl)Cl)Cl)C/2=C/3\C=C(I)/C(=O)/C(=C3OC4=C2C=C(I)C(=C4I)[O-])I	13.2		421	417	434
O=C(Nc1ccccc1Br)N[C@@H]1CCN(c2ccc(C(F)(F)F)cn2)C1	20.9		477	539	575
Cc1[nH]c2ccc(F)cc2c1-c1nc2c3cccnc3c3ncccc3c2[nH]1	1.52		326	424	498
Cc1cc(OCCC[S+](C)(=O)[O-])cc(C)c1-c1cccc(COc2ccc3c(c2)OC[C@H]3CC(=O)O)c1	20.9		425	491	528
O=C1CCc2cc(OCCCCc3nnnn3C3CCCCC3)ccc2N1	18.6		468	531	579
CC(C)(C)OC(=O)Nc1ccc(-c2cc(C(=O)NCCCCCCC(=O)NO)no2)cc1	14.8		479	564	598
O=C1c2cccc(O)c2C(=O)c2c(O)cc(CO)cc21	10.5		508	575	656
FC1=CC=C(SC/2=N/N3\C=N/C(=O)/C(=C3/C=C2)C4=C(Cl)C=CC=C4Cl)C(=C1)F	0.0372		453	541	562
c1ccc2c(-c3cnn4cc(-c5ccc(OCCN6CCOCC6)cc5)cnc34)ccnc2c1	4.56		395	568	637
CCC(=O)N[C@H]1CC[C@H](C(=O)N(C)c2ccc(-c3nc4ccccc4o3)cc2)C1	23.5		548	555	661
O=C(O)c1ccc(O)c2ncccc12	33.2		458	447	491
